# Several values for one entry are separate records, joined by “and”; a condition that tells them apart may be missing. Equal entries are not always repeated. Where two headings read alike, the source gives them in different places.
# Assays:
# [1] = Phase 1/2 study: plasma pharmacokinetics of Compound (I) in patients (LC-MS/MS, non-compartmental analysis); assay type: in vivo, human
# Protocol: The following example presents a phase 1/2 study of Compound (I) in patients with solid tumors harboring GNAQ/11 mutations or PRKC fusions.
# Patients with MUM were sequentially enrolled into Cohort 1 or Cohort 2. Enrollment into Cohort 2 was not initiated until enrollment into Cohort 1 was completed and the dose considered safe. • a. Cohort 1. 6 patients were sequentially enrolled and received 300 mg twice a day (BID), daily, for 28-day treatment cycles. • b. Cohort 2. 6 patients were sequentially enrolled and received 400 mg BID, preceded by an initial 7-day 200 mg BID run-in period, for 28-day treatment cycles. All patients continue to receive treatment with Compound (I) unless the subject experiences one or more of the following: • Adverse event • Lost to follow-up • Physician decision • Progressive disease • Study termination by the Sponsor • Patient/guardian decision • Protocol deviation • Non-compliance with protocol • Death • Pregnancy NUMBER OF SUBJECTS: 12 patients
# The following example presents pharmacokinetic results from the study as described in Example 1.
# Blood samples were collected on Cycle 1 Day 1 and Day 15 from patients who were administered 300 mg BID of Compound (I), and on Cycle 1 Day 8 and Day 22 from patients who were administered 200 mg BID for 7 days followed by 400 mg BID of Compound (I) for the remainder of the treatment cycle. The plasma samples were processed by protein precipitation (see Ahuja S and Dong M. W, Handbook of Pharmaceutical Analysis by HPLC, Elsevier Inc., Chapter 17, page 433, 2005) and analyzed using an LC-MS/MS method; Quantification was achieved using Compound (I) peak area to internal standard (3-amino-N-(3-(4-amino-4-(methyl-d3)piperidin-1-yl)pyridin-2-yl)-6-(3-(trifluoromethyl)pyridin-2-yl)pyrazine-2-carboxamide) peak area ratios. Concentrations of the calibration curve standards, quality control samples, and patient samples were determined by the method of 1/x^2 weighted least squares linear regression.
# The Pharmacokinetic parameters were calculated using Phoenix WinNonlin software (non-compartmental analysis).
# [2] = Hypotension studies: adverse events, single-agent Compound (I), 300 mg BID vs 400 mg BID with 7-day 200 mg run-in (Tables 6, 7); assay type: in vivo
# Text: Patients with MUM were sequentially enrolled into Cohort 1 or Cohort 2. Enrollment into Cohort 2 was not initiated until enrollment into Cohort 1 was completed and the dose considered safe. • a. Cohort 1. […] Cohort 2. […] All patients continue to receive treatment with Compound (I) unless the subject experiences one or more of the following: • Adverse event • Lost to follow-up • Physician decision • Progressive disease • Study termination by the Sponsor • Patient/guardian decision • Protocol […]
# [3] = individual patients, 300 mg BID
# [4] = individual patients, 300 mg BID, C1 Day 1
# [5] = individual patients, 300 mg BID, C1 Day 15
# [6] = individual patients, 400 mg BID with 200 mg run-in
# [7] = individual patients, 400 mg BID with 200 mg run-in, C1 Day 8
# [8] = individual patients, 400 mg BID with 200 mg run-in, C1 Day 22
# [9] = 300 mg BID, N = 26, regardless of study drug relationship
# [10] = 400 mg BID with 7-day 200 mg run-in, N = 30
# [11] = 400 mg BID with 7-day 200 mg run-in, N = 30, regardless of study drug relationship
# [12] = All Patients, N = 56, regardless of study drug relationship
structure (smiles),measurement,setting,value
"CC1(N)CCN(c2cccnc2NC(=O)c2nc(-c3ncccc3C(F)(F)F)cnc2N)CC1 [Compound (I), 3-amino-N-(3-(4-amino-4-methylpiperidin-1-yl)pyridin-2-yl)-6-(3-(trifluoromethyl)pyridin-2-yl)pyrazine-2-carboxamide]",Cmax,"[1]; human, plasma, oral, 400 mg BID, 400 mg BID with 200 mg run-in, Cycle 1 Day 22, mean ± SD, n = 24, read-out: Cmax",3580 ± 1390 ng/mL
same,AUC ratio D15/D1,[1]; [3],0.83 and 0.87 and 1.53 and 0.67 and 1.1 and 0.66 (2×) and 0.44 and 0.51 and 0.41 and 0.62 and 1.22 and 0.61
same,Cmin on C1D15,[1]; [3],645 ng/mL and 626 ng/mL and 175 ng/mL and 792 ng/mL and 1075 ng/mL and 1212 ng/mL and 1088 ng/mL and 798 ng/mL and 322 ng/mL and 1337 ng/mL and 1549 ng/mL and 715 ng/mL and 699 ng/mL
same,AUC0-12,[1]; [4],22974 ng·h/mL and 17983 ng·h/mL and 3597 ng·h/mL and 22480 ng·h/mL and 19439 ng·h/mL and 43190 ng·h/mL and 35321 ng·h/mL and 26969 ng·h/mL and 39949 ng·h/mL and 233274 ng·h/mL and 26345 ng·h/mL and 19768 ng·h/mL
same,Cmax,[1]; [4],3159 ng/mL and 2980 ng/mL and 607 ng/mL and 3147 ng/mL and 4367 ng/mL and 8940 ng/mL and 7009 ng/mL and 5386 ng/mL and 6252 ng/mL and 5549 ng/mL and 3866 ng/mL and 5523 ng/mL and 2256 ng/mL
same,Tmax,[1]; [4],4 h and 2 h and 1 h and 0.5 h
same,AUC0-12,[1]; [5],19049 ng·h/mL and 15640 ng·h/mL and 5511 ng·h/mL and 15071 ng·h/mL and 21194 ng·h/mL and 23600 ng·h/mL and 19185 ng·h/mL and 17909 ng·h/mL and 10949 ng·h/mL and 24582 ng·h/mL and 28493 ng·h/mL and 16155 ng·h/mL and 13083 ng·h/mL
same,Cmax,[1]; [5],3965 ng/mL and 2149 ng/mL and 1392 ng/mL and 3079 ng/mL and 2984 ng/mL and 3442 ng/mL and 2782 ng/mL and 2574 ng/mL and 2969 ng/mL and 3618 ng/mL and 4203 ng/mL and 2348 ng/mL and 2971 ng/mL
same,Tmax,[1]; [5],0.5 h and 1 h and 2 h
same,AUC ratio D22/D8,[1]; [6],1.3 (3×) and 1.1 (2×) and 0.84 and 0.66 and 0.75 and 1.0 (3×) and 0.85 and 0.95 and 0.59 and 0.88 and 1.5 and 0.42 and 1.2 and 0.64 and 0.70 and 1.4
same,Cmin on C1D22,[1]; [6],1019 ng/mL and 969 ng/mL and 931 ng/mL and 497 ng/mL and 533 ng/mL and 674 ng/mL and 916 ng/mL and 777 ng/mL and 179 ng/mL and 1631 ng/mL and 334 ng/mL and 1110 ng/mL and 264 ng/mL and 3140 ng/mL and 1082 ng/mL and 1887 ng/mL and 478 ng/mL and 1912 ng/mL and 1592 ng/mL and 2909 ng/mL and 677 ng/mL
same,AUC0-12,[1]; [7],17779 ng·h/mL and 19720 ng·h/mL and 22367 ng·h/mL and 23416 ng·h/mL and 16365 ng·h/mL and 28796 ng·h/mL and 13072 ng·h/mL and 56156 ng·h/mL and 22089 ng·h/mL and 23178 ng·h/mL and 18745 ng·h/mL and 6311 ng·h/mL and 38119 ng·h/mL and 13309 ng·h/mL and 22361 ng·h/mL and 10348 ng·h/mL and 32689 ng·h/mL and 48672 ng·h/mL and 23856 ng·h/mL and 17650 ng·h/mL and 43163 ng·h/mL and 23378 ng·h/mL and 30601 ng·h/mL and 13604 ng·h/mL
same,Cmax,[1]; [7],2068 ng/mL and 2948 ng/mL and 2077 ng/mL and 7600 ng/mL and 2121 ng/mL and 2580 ng/mL and 1949 ng/mL and 7450 ng/mL and 3838 ng/mL and 6560 ng/mL and 4478 ng/mL and 1922 ng/mL and 6872 ng/mL and 4037 ng/mL and 2949 ng/mL and 2603 ng/mL and 3474 ng/mL and 7043 ng/mL and 2520 ng/mL and 2531 ng/mL and 4952 ng/mL and 4452 ng/mL and 4329 ng/mL and 3053 ng/mL
same,Tmax,[1]; [7],2 h and 1 h and 6 h and 0.5 h and 4 h
same,AUC0-12,[1]; [8],22282 ng·h/mL and 21010 ng·h/mL and 18847 ng·h/mL and 15424 ng·h/mL and 12278 ng·h/mL and 13221 ng·h/mL and 18705 ng·h/mL and 20068 ng·h/mL and 6604 ng·h/mL and 36219 ng·h/mL and 7788 ng·h/mL and 19634 ng·h/mL and 10656 ng·h/mL and 48381 ng·h/mL and 20635 ng·h/mL and 28583 ng·h/mL and 11327 ng·h/mL and 30027 ng·h/mL and 32888 ng·h/mL and 38889 ng·h/mL and 18178 ng·h/mL
same,Cmax,[1]; [8],2556 ng/mL and 2756 ng/mL and 1709 ng/mL and 5026 ng/mL and 2562 ng/mL and 1911 ng/mL and 2853 ng/mL and 2578 ng/mL and 5948 ng/mL and 2203 ng/mL and 2403 ng/mL and 1992 ng/mL and 5663 ng/mL and 5314 ng/mL and 3276 ng/mL and 4296 ng/mL and 5657 ng/mL and 5617 ng/mL and 3676 ng/mL and 3890 ng/mL
same,Tmax,[1]; [8],2 h and 1 h and 6 h and 0.5 h and 4 h
same,"mean Cmin at steady state, higher at 400 mg BID (with 200 mg run-in) than at 300 mg BID",[1]; steady state,~40%
same,mean steady state exposure (200 mg BID 7 days then 400 mg BID) vs 300 mg BID,[1]; steady state,higher mean steady state exposure
same,"Hypotension, all grades, treatment-emergent, suspected to be study related","[2]; 300 mg BID, N = 26",1 (3.8) n (%)
same,"Hypotension, grade 3/4, treatment-emergent, suspected to be study related","[2]; 300 mg BID, N = 26",0 n (%)
same,"Hypotension, all grades",[2]; [9],1 (3.8) n (%)
same,"Hypotension, grade 3/4",[2]; [9],0 n (%)
same,"Hypotension, all grades, treatment-emergent, suspected to be study related",[2]; [10],2 (6.7) n (%)
same,"Hypotension, grade 3/4, treatment-emergent, suspected to be study related",[2]; [10],0 n (%)
same,"Hypotension, all grades",[2]; [11],4 (13.3) n (%)
same,"Hypotension, grade 3/4",[2]; [11],0 n (%)
same,"Hypotension, all grades, treatment-emergent, suspected to be study related","[2]; All Patients, N = 56",3 (5.4) n (%)
same,"Hypotension, grade 3/4, treatment-emergent, suspected to be study related","[2]; All Patients, N = 56",0 n (%)
same,"Hypotension, all grades",[2]; [12],5 (8.9) n (%)
same,"Hypotension, grade 3/4",[2]; [12],0 n (%)
same,frequency of hypotension at 400 mg BID with 200 mg run-in vs 400 mg BID alone,[2]; in vivo,less frequently

# Reference: US20220401440A1, “DOSING REGIMENS FOR A PROTEIN KINASE C INHIBITOR” (IDEAYA BIOSCIENCES, INC., priority 2019, published 2022)
